Read-outs that look alike come from different tables or passages of the source.
Columns and labels:
humanDOR = humanDOR (Homo sapiens (Human), UniProt P41143); assay: Receptor binding, [3H]diprenorphine
hKOR = hKOR (Homo sapiens (Human), UniProt P41145); assay: Receptor binding, [3H]diprenorphine
MOR = MOR (Homo sapiens (Human), UniProt P35372); assay: Receptor binding, [3H]diprenorphine
μOR = μOR (Homo sapiens (Human), UniProt P35372); assay: cell-based; format: cell-based
[1] = molecular target: μOR β-arrestin2 recruitment (Homo sapiens (Human), UniProt P35372); assay: β-Arrestin2 recruitment without GRK2 co-expression (BRET); format: cell-based
[2] = molecular target: human μOR β-arrestin2 recruitment + GRK2 (Homo sapiens (Human), UniProt P35372); assay: β-Arrestin2 recruitment with GRK2 co-expression (BRET); format: cell-based; conditions: GRK2 co-expressed

Sequence of MOR (P35372 whole entry): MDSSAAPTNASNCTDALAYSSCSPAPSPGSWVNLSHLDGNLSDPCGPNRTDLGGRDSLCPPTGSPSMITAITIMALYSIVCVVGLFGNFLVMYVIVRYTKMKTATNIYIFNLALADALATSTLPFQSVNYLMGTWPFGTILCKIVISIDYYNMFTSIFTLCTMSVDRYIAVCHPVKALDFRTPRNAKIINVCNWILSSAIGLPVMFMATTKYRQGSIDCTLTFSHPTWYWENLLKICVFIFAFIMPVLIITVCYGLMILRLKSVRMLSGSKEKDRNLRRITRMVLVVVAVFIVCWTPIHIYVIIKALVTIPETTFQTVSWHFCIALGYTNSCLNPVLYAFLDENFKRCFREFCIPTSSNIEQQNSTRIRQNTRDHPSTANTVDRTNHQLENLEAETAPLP
Sequence of hKOR (P41145 whole entry): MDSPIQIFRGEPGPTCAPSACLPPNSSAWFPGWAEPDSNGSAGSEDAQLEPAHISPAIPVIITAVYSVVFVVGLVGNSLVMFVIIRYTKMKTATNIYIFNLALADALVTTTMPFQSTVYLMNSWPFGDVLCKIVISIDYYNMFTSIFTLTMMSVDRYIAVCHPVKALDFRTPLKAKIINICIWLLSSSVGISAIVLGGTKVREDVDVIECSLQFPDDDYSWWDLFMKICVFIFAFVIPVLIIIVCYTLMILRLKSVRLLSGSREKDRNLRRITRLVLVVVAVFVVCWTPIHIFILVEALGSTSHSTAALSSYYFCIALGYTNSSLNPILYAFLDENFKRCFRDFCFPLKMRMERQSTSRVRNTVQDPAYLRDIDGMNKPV
Sequence of humanDOR (P41143 whole entry): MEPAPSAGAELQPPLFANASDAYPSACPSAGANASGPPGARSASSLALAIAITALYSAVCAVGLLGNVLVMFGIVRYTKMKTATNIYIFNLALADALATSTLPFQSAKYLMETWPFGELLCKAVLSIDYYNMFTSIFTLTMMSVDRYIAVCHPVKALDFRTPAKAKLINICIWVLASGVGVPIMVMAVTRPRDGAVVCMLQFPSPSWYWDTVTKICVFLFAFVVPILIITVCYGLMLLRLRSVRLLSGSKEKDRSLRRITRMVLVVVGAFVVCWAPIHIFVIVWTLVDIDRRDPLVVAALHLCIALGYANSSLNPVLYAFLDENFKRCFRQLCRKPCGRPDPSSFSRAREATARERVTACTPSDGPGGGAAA

CC(Cc1csc2ccccc12)NC(=O)NC[C@H](Cc1ccc(O)cc1)N(C)C (mixture of isomers) [DD 63L-RS]
Ki (humanDOR): 44 ± 1.4 nM
Ki (humanDOR; read-out: binding affinity Ki [nM] hDOR): 44 nM
Ki (hKOR; binding affinity Ki [nM] hKOR): 19 nM
Ki (hKOR; hKOR [3H]dyprenorphine Ki): 14 ± 0.71 nM
Ki (MOR; binding affinity Ki [nM] hMOR): 14 nM
Ki (MOR; hMOR [3H]dyprenorphine Ki): 16 ± 1.4 nM

CN(CCO)[C@H](CNC(=O)NCCc1ccccc1)Cc1ccc(O)cc1 [DD186, (S)-1-(2-((2-hydroxyethyl)(methyl)amino)-3-(4-hydroxyphenyl)propyl)-3-phenethylurea]
Ki (humanDOR): 1800 nM
Ki (hKOR): 1300 nM
Ki (MOR): 970 nM

C[C@@H](Cc1ccsc1)NC(=O)NC[C@H](Cc1ccc(O)cc1)N(C)Cc1ccccc1 [DD187, 1-((S)-2-(benzyl(methyl)amino)-3-(4-hydroxyphenyl)propyl)-3-((S)-1-(thiophen-3-yl)propan-2-yl)urea]
Ki (humanDOR): 720 nM
Ki (hKOR): 210 nM
Ki (MOR): 220 nM

COc1ccccc1CCNC(=O)NC[C@H](Cc1ccc(O)cc1)N(C)C [DD198, (S)-1-(2-(dimethylamino)-3-(4-hydroxyphenyl)propyl)-3-(2-methoxyphenethyl)urea]
Ki (humanDOR): 150 nM
Ki (hKOR; binding affinity Ki [nM] hKOR): 140 nM
Ki (MOR; binding affinity Ki [nM] hMOR): 22 nM

COc1cccc(CCNC(=O)NC[C@H](Cc2ccc(O)cc2)N(C)C)c1 [DD200, (S)-1-(2-(dimethylamino)-3-(4-hydroxyphenyl)propyl)-3-(3-methoxyphenethyl)urea]
Ki (humanDOR): 220 nM
Ki (hKOR): 1300 nM
Ki (MOR): 110 nM

COc1ccc(CCNC(=O)NC[C@H](Cc2ccc(O)cc2)N(C)C)cc1 [DD201, (S)-1-(2-(dimethylamino)-3-(4-hydroxyphenyl)propyl)-3-(4-methoxyphenethyl)urea]
Ki (humanDOR): 10000 nM
Ki (hKOR): 1500 nM
Ki (MOR): 330 nM

C[C@@H](Cc1csc2ccccc12)NC(=O)NC[C@H](Cc1ccc(O)cc1)N(C)C [DD 63L-LB]
Gi/o pEC50 (μOR): 8.244
Arrestin pEC50 [1]: 6.401
Arrestin + GRK2 pEC50 [2]: 7.086

CN(C)[C@H](CNC(=S)NCCc1ccsc1)Cc1ccc(O)cc1 [DD 81, (S)-1-(2-(dimethylamino)-3-(4-hydroxyphenyl)propyl)-3-(2-(thiophen-3-yl)ethyl)thiourea]
Gi/o pEC50 (μOR): 7.821
Arrestin pEC50 [1]: 7.604
Arrestin + GRK2 pEC50 [2]: 7.173

CN(C)[C@H](CNC(=O)NCCc1ccccc1)Cc1ccc(O)cc1 [DD 90]
Gi/o pEC50 (μOR): 8.371
Arrestin pEC50 [1]: 7.272
Arrestin + GRK2 pEC50 [2]: 6.841

CN(CCc1ccccc1)C(=O)NC[C@H](Cc1ccc(O)cc1)N(C)C [DD 102]
Gi/o pEC50 (μOR): 7.421
Arrestin pEC50 [1]: 5.703
Arrestin + GRK2 pEC50 [2]: 5.824

CN(C[C@H](Cc1ccc(O)cc1)N(C)C)C(=O)NCCc1ccccc1 [DD 108]
Gi/o pEC50 (μOR): 7.455
Arrestin pEC50 [1]: 5.327
Arrestin + GRK2 pEC50 [2]: 5.826

C[C@@H](Cc1ccsc1)NC(=O)NC[C@H](Cc1ccc(O)c(CO)c1)N(C)C [DD 131, 1-((S)-2-(dimethylamino)-3-(4-hydroxy-3-(hydroxymethyl)phenyl)propyl)-3-((S)-1-(thiophen-3-yl)propan-2-yl)urea]
Gi/o pEC50 (μOR): 8.1
Arrestin pEC50 [1]: 6.639
Arrestin + GRK2 pEC50 [2]: 6.671

CN(C)[C@H](CNC(=O)NCCCN1C(=O)C=CC1=O)Cc1ccc(O)cc1 [DD 138, (S)-1-(2-(dimethylamino)-3-(4-hydroxyphenyl)propyl)-3-(3-(2,5-dioxo-2,5-dihydro-1H-pyrrol-1-yl)propyl)urea]
Ki (MOR; binding affinity Ki [nM] hMOR): 580 nM

CN(C)[C@H](CNC(=O)NCCc1cn(CCOCCOCCOCCOCCOCCNC(=O)CCCC[C@@H]2SC[C@@H]3NC(=O)N[C@@H]32)nn1)Cc1ccc(O)cc1 [DD 170, N-(17-(4-(2-(3-((S)-2-(dimethylamino)-3-(4-hydroxyphenyl)propyl)ureido)ethyl)-1H-1,2,3-triazol-1-yl)-3,6,9,12,15-pentaoxaheptadecyl)-5-((3aS,4S,6aR)-2-oxohexahydro-1H-thieno[3,4-d]imidazol-4-yl)pentanamide]
Ki (MOR; read-out: binding affinity Ki [nM] hMOR): 13000 nM

CN(C)[C@H](CNC(=O)NCCc1ccccc1F)Cc1ccc(O)cc1 [DDLM-08, (S)-1-(2-(dimethylamino)-3-(4-hydroxyphenyl)propyl)-3-(2-fluorophenethyl)urea]
Ki (humanDOR): 53 nM
Ki (hKOR; binding affinity Ki [nM] hKOR): 440 nM
Ki (MOR; binding affinity Ki [nM] hMOR): 43 nM

— patent US10702498B2 (priority 2015, dated 2020)
